Data taken from patent EP2186507A2, “A liquid pharmaceutical formulation comprising nicotine for the administration to the oral cavity” (McNeil AB, priority 2001, dated 2003).
Read-outs that look alike come from different tables or passages of the source.

Tests used:
[1] = Merck Index; cited from earlier work
[2] = Description: Absorption of nicotine from the oral cavity to the systemic circulation is dependent on the pH of the saliva and the pKa of nicotine, which is about 7.8. Assuming a pH of the saliva of 6.8 only about 10% of the nicotine in saliva will be in the free base form. Thus, in order to promote absorption of nicotine in a free base form, which is the form predominantly absorbed through the mucosa, the pH of the saliva must be increased. At a pH of 8.8 about 90% of the nicotine in saliva will then be in the free base form.

Compound: CN1CCCC1c1cccnc1 (stereo not drawn) [nicotine, 3-(1-methyl-2-pyrrolidinyl)-pyridine]
- amount that may kill an adult [1]: Approximately forty
- nicotine in saliva in the free base form ([2]; assuming a pH of the saliva of 6.8): about 10%
- nicotine in saliva in the free base form ([2]; at a pH of 8.8): about 90%
